Measured values from the supplement of paper PMC13207355.
Structures can show the parent of a compound that is named as a salt.

Key:
Details in all cases: exposure time: 72 h
[1] = system: E28 (patient-derived glioblastoma stem cells of classical subtype); assay: phenotypic distance (Euclidean, principal components) from DMSO controls (arbitrary units); higher = stronger morphological change
[2] = system: FT3469 (normal neural stem cell line); assay: as above
[3] = system: E13 (patient-derived glioblastoma stem cells of classical subtype); assay: as above
[4] = system: E34 (patient-derived glioblastoma stem cells of proneural subtype); assay: as above
[5] = system: E57 (patient-derived glioblastoma stem cells of mesenchymal subtype); assay: as above
[6] = system: E21 (patient-derived glioblastoma stem cells of mesenchymal subtype); assay: as above
[7] = system: E31 (patient-derived glioblastoma stem cells of proneural subtype); assay: as above
[8] = system: E28; assay: surviving fraction (nuclei count normalised to DMSO); higher = more cells surviving (less toxic)
[9] = system: FT3469; assay: as above
[10] = system: E13; assay: as above
[11] = system: E34; assay: as above
[12] = system: E57; assay: as above
[13] = system: E21; assay: as above
[14] = system: E31; assay: as above
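Wherever phenotypic distance (Euclidean, principal components) from DMSO controls is given: cell Painting imaging in 384-well plates, CellProfiler features reduced to at least 20 principal components, Euclidean distance versus same-plate DMSO vehicle wells (0.1% v/v), median over six images per well.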
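Wherever surviving fraction (nuclei count normalised to DMSO) is given: nuclei counted by high-content imaging of Hoechst-stained cells in laminin-coated 384-well plates, relative to 0.1% DMSO vehicle wells, with staurosporine as cell-death control.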

CCOC(=O)OC(C)OC(=O)[C@@H]1N2C(=O)[C@@H](NC(=O)[C@H](N)c3ccccc3)[C@H]2SC1(C)C (stereo partly specified) [Bacampicillin hydrochloride]
Details | phenotypic distance | surviving fraction
[1], 4.1 nM | 0.82 | –
[1], 12.3 nM | 0.789 | –
[1], 37 nM | 1.1 | –
[1], 111.1 nM | 0.421 | –
[1], 333.3 nM | 0.781 | –
[1], 1000 nM | 0.904 | –
[1], 3000 nM | 0.881 | –
[2], 4.1 nM | 0.697 | –
[2], 12.3 nM | 0.387 | –
[2], 37 nM | 0.735 | –
[2], 111.1 nM | 0.551 | –
[2], 333.3 nM | 0.433 | –
[2], 1000 nM | 0.827 | –
[2], 3000 nM | 0.96 | –
[3], 4.1 nM | 0.65 | –
[3], 12.3 nM | 1.12 | –
[3], 37 nM | 0.975 | –
[3], 111.1 nM | 0.635 | –
[3], 333.3 nM | 0.439 | –
[3], 1000 nM | 0.698 | –
[3], 3000 nM | 0.628 | –
[4], 4.1 nM | 0.569 | –
[4], 12.3 nM | 0.614 | –
[4], 37 nM | 0.651 | –
[4], 111.1 nM | 0.507 | –
[4], 333.3 nM | 1.28 | –
[4], 1000 nM | 0.329 | –
[4], 3000 nM | 1.06 | –
[5], 4.1 nM | 0.537 | –
[5], 12.3 nM | 1.07 | –
[5], 37 nM | 0.681 | –
[5], 111.1 nM | 0.754 | –
[5], 333.3 nM | 0.45 | –
[5], 1000 nM | 0.576 | –
[5], 3000 nM | 0.604 | –
[6], 4.1 nM | 0.814 | –
[6], 12.3 nM | 0.643 | –
[6], 37 nM | 1.05 | –
[6], 111.1 nM | 0.376 | –
[6], 333.3 nM | 0.776 | –
[6], 1000 nM | 0.7 | –
[6], 3000 nM | 0.853 | –
[7], 4.1 nM | 0.89 | –
[7], 12.3 nM | 0.639 | –
[7], 37 nM | 0.836 | –
[7], 111.1 nM | 0.578 | –
[7], 333.3 nM | 0.932 | –
[7], 1000 nM | 0.697 | –
[7], 3000 nM | 0.565 | –
[8], 4.1 nM | – | 0.882
[8], 12.3 nM | – | 0.993
[8], 37 nM | – | 1.09
[8], 111.1 nM | – | 1.19
[8], 333.3 nM | – | 0.997
[8], 1000 nM | – | 1.15
[8], 3000 nM | – | 1.06
[9], 4.1 nM | – | 0.909
[9], 12.3 nM | – | 0.875
[9], 37 nM | – | 1.05
[9], 111.1 nM | – | 0.978
[9], 333.3 nM | – | 1.03
[9], 1000 nM | – | 1.05
[9], 3000 nM | – | 0.858
[10], 4.1 nM | – | 0.878
[10], 12.3 nM | – | 0.951
[10], 37 nM | – | 1.03
[10], 111.1 nM | – | 0.813
[10], 333.3 nM | – | 1
[10], 1000 nM | – | 1.04
[10], 3000 nM | – | 1.11
[11], 4.1 nM | – | 0.918
[11], 12.3 nM | – | 1.02
[11], 37 nM | – | 0.858
[11], 111.1 nM | – | 0.934
[11], 333.3 nM | – | 1.25
[11], 1000 nM | – | 1.05
[11], 3000 nM | – | 1.07
[12], 4.1 nM | – | 0.987
[12], 12.3 nM | – | 1.09
[12], 37 nM | – | 0.961
[12], 111.1 nM | – | 1.03
[12], 333.3 nM | – | 0.926
[12], 1000 nM | – | 0.97
[12], 3000 nM | – | 0.956
[13], 4.1 nM | – | 0.982
[13], 12.3 nM | – | 1.01
[13], 37 nM | – | 1.09
[13], 111.1 nM | – | 1.01
[13], 333.3 nM | – | 1
[13], 1000 nM | – | 0.914
[13], 3000 nM | – | 1.06
[14], 4.1 nM | – | 0.986
[14], 12.3 nM | – | 0.807
[14], 37 nM | – | 0.871
[14], 111.1 nM | – | 0.941
[14], 333.3 nM | – | 1
[14], 1000 nM | – | 0.965
[14], 3000 nM | – | 1.1

CC(C)C(=O)OCC(=O)[C@@]12O[C@H](C3CCCCC3)O[C@@H]1C[C@H]1[C@@H]3CCC4=CC(=O)C=C[C@]4(C)[C@H]3[C@@H](O)C[C@@]12C [Ciclesonide]
Details | phenotypic distance | surviving fraction
[1], 4.1 nM | 1.16 | –
[1], 12.3 nM | 0.863 | –
[1], 37 nM | 1.07 | –
[1], 111.1 nM | 0.708 | –
[1], 333.3 nM | 1 | –
[1], 1000 nM | 0.827 | –
[1], 3000 nM | 2.3 | –
[2], 4.1 nM | 1.45 | –
[2], 12.3 nM | 1.86 | –
[2], 37 nM | 1.15 | –
[2], 111.1 nM | 1.37 | –
[2], 333.3 nM | 1.4 | –
[2], 1000 nM | 0.997 | –
[2], 3000 nM | 0.762 | –
[3], 4.1 nM | 0.991 | –
[3], 12.3 nM | 0.745 | –
[3], 37 nM | 1.05 | –
[3], 111.1 nM | 1.04 | –
[3], 333.3 nM | 0.74 | –
[3], 1000 nM | 1.02 | –
[3], 3000 nM | 3.25 | –
[4], 4.1 nM | 0.88 | –
[4], 12.3 nM | 0.851 | –
[4], 37 nM | 1.45 | –
[4], 111.1 nM | 1.77 | –
[4], 333.3 nM | 1.12 | –
[4], 1000 nM | 0.771 | –
[4], 3000 nM | 1.4 | –
[5], 4.1 nM | 1.77 | –
[5], 12.3 nM | 2.02 | –
[5], 37 nM | 2.36 | –
[5], 111.1 nM | 2.51 | –
[5], 333.3 nM | 2.31 | –
[5], 1000 nM | 2.44 | –
[5], 3000 nM | 2.49 | –
[6], 4.1 nM | 1.83 | –
[6], 12.3 nM | 2.04 | –
[6], 37 nM | 1.74 | –
[6], 111.1 nM | 2.02 | –
[6], 333.3 nM | 2.07 | –
[6], 1000 nM | 1.89 | –
[6], 3000 nM | 2.4 | –
[7], 4.1 nM | 2.4 | –
[7], 12.3 nM | 2.62 | –
[7], 37 nM | 3 | –
[7], 111.1 nM | 3.03 | –
[7], 333.3 nM | 3.06 | –
[7], 1000 nM | 3.27 | –
[7], 3000 nM | 2.27 | –
[8], 4.1 nM | – | 1.11
[8], 12.3 nM | – | 1
[8], 37 nM | – | 1.26
[8], 111.1 nM | – | 1.07
[8], 333.3 nM | – | 0.894
[8], 1000 nM | – | 1.05
[8], 3000 nM | – | 0.615
[9], 4.1 nM | – | 1.1
[9], 12.3 nM | – | 1.38
[9], 37 nM | – | 1.15
[9], 111.1 nM | – | 1.04
[9], 333.3 nM | – | 1.03
[9], 1000 nM | – | 1.1
[9], 3000 nM | – | 0.803
[10], 4.1 nM | – | 0.929
[10], 12.3 nM | – | 0.899
[10], 37 nM | – | 0.833
[10], 111.1 nM | – | 0.908
[10], 333.3 nM | – | 0.889
[10], 1000 nM | – | 0.796
[10], 3000 nM | – | 0.233
[11], 4.1 nM | – | 1.04
[11], 12.3 nM | – | 0.897
[11], 37 nM | – | 1.13
[11], 111.1 nM | – | 1.02
[11], 333.3 nM | – | 1.08
[11], 1000 nM | – | 1.06
[11], 3000 nM | – | 0.589
[12], 4.1 nM | – | 1.08
[12], 12.3 nM | – | 1.18
[12], 37 nM | – | 1.1
[12], 111.1 nM | – | 1.32
[12], 333.3 nM | – | 1.16
[12], 1000 nM | – | 1.19
[12], 3000 nM | – | 0.756
[13], 4.1 nM | – | 1.24
[13], 12.3 nM | – | 1.23
[13], 37 nM | – | 1.07
[13], 111.1 nM | – | 1.17
[13], 333.3 nM | – | 1.19
[13], 1000 nM | – | 1.24
[13], 3000 nM | – | 0.893
[14], 4.1 nM | – | 1.24
[14], 12.3 nM | – | 1.11
[14], 37 nM | – | 1.33
[14], 111.1 nM | – | 1.47
[14], 333.3 nM | – | 1.25
[14], 1000 nM | – | 1.27
[14], 3000 nM | – | 0.766
